One compound from patent publication US12180198B2, “Ribocil C antibiotics effective for Gram-negative pathogens” (THE BOARD OF TRUSTEES OF THE UNIVERSITY OF ILLINOIS, priority 2018, dated 2024) can be followed below.

Where a name gives a salt, the structure may show the parent alone.

Series [1] has as its system A. baumannii W41979. In words: Acute pneumonia bacterial burden model. The class given is in vivo. Particulars: CD-1 mice, 50 mg/kg IV. As for the experimental part:
(§1) FIG. 4. In vivo efficacy of Debio-1452-NH3. A. Kaplan-Meier survival curve of mouse efficacy model of A. baumannii sepsis. Seven-week-old CD-1 mice were infected with A. baumannii W41979 (2.6×10^8 CFU/mouse, 15 mice per group) via IV injection. Mice were treated once-a-day for 4 days with FabI inhibitor (IV, 50 mg/kg). Log-rank test, p<0.0001. B. Acute pneumonia infections initiated in CD-1 mice with A. baumannii W41979 (2.1×10^8 CFU/mouse, intranasal) were treated with vehicle (8 mice) or FabI inhibitor (10 mice per group) 8, 30, and 48 h post-infection (IV, 50 mg/kg), and the bacterial burden was evaluated 72 h post-infection. C. […] Acute pneumonia infections initiated in CD-1 mice with K. pneumoniae BAA-1705 (4.4×10^8 CFU/mouse, intranasal) were treated with vehicle or FabI inhibitor (8 mice per group) 6, 23, and 45 h post-infection (IV, 50 mg/kg), and the bacterial burden was evaluated 72 h post-infection. […] Acute pneumonia infections initiated in CD-1 mice with E. coli AR-0493 (1.73×10^8 CFU/mouse, intranasal) were treated with vehicle or FabI inhibitor (8 mice per group) 6 and 28 h post-infection (IV, 50 mg/kg), and the bacterial burden was evaluated 48 h post-infection. […]
(§2) Acute pneumonia bacterial burden model. […] At 48 h post-infection (E. coli) or 72 h post-infection (A. baumannii and K. pneumoniae), CFU were determined in the lungs through serial dilutions. […]

For series [2], the system named is A. baumannii W41979. In words: Bacterial sepsis survival model. It counts as in vivo. The note with it: CD-1 mice, 50 mg/kg IV once-per-day, four doses. As for the experimental part: as §1, with “C. Kaplan-Meier survival curve of in vivo efficacy model of K. pneumonia sepsis. Seven-week-old CD-1 mice were infected with K. pneumoniae BAA-1705 (1.08×10^8 CFU/mouse, 15 mice per group) via IV injection.” for “C.”

Series [3] has as its system carbepenem-resistant K. pneumoniae. In words: Sepsis survival and pneumonia bacterial burden models. The class given is in vivo. Particulars: CD-1 mice, K. pneumoniae BAA-1705, 50 mg/kg IV. As to the method: as §1, §2
Series [4] relates to colistin-resistant E. coli. The series is described as above. It counts as in vivo. Particulars: CD-1 mice, E. coli AR-0493, 50 mg/kg IV. As to the method:
as §1, §2

A further series can be described thus: Mouse MTD. As to the method: The protocol was approved by the IACUC at the University of Illinois at Urbana-Champaign (Protocol Number: 16144). In these studies, 10- to 12-week-old female C57BL/6 mice purchased from Charles River were used. The maximum tolerate dose (MTD) of a single compound was determined first. […] For multiple doses, the compound was given by daily IP for 5 consecutive days and mice were monitored for signs of toxicity for 1 month. MTD was the highest dosage with acceptable toxicity (e.g., <20% weight loss). Single dose MTDs were initially determined.

The test system of series [5] is strains harboring FabI G148S. In words: MIC against resistant mutants. The class given is cell-based, E. coli. The note with it: Escherichia coli, FABIG148S. As for the experimental part: (§3) Antimicrobial susceptibility tests. Susceptibility testing was performed in biological triplicate, using the micro-dilution broth method as outlined by the Clinical and Laboratory Standards Institute. Bacteria were cultured with cation-adjusted Muller-Hinton broth (Sigma-Aldrich, Cat #90922) in round-bottom 96-well plates (Corning, Cat #3788). Human serum (pooled gender, 0.2 μm filtered) was purchased from BioIVT (Hicksville, NY).
(§4) Selection of resistant mutants. Resistant mutants were selected via the large inoculum method.

The test system of series [6] is E. coli harboring FabI A116V. In words: MIC against resistant mutants. The note with it: Escherichia coli. The class given is cell-based. As to the method:
as §3, §4

As to `Cc1c(CN(C)C(=O)/C=C/c2cnc3c(c2)CC(N)C(=O)N3)oc2ccccc12` (stereo not drawn) [Debio-1452-NH3, (E)-3-(6-amino-7-oxo-5,6,7,8-tetrahydro-1,8-naphthyridin-3-yl)-N-methyl-N-((3-methylbenzofuran-2-yl)methyl)acrylamide hydrochloride], in the series on A. baumannii W41979 [1], the “bacterial burden (in words)” value is reported as “reduced bacterial burden”. In addition, in the series on A. baumannii W41979 [2], the “survival (in words)” value is reported as “significantly increased survival”. Besides, the “efficacy in infected mice (in words)” value in series [3] and in series [4] was “efficacy” throughout. In “Mouse MTD” (female, C57BL/6, mouse, in vivo, ip, 5 days), the “dose well tolerated in mice” value stood at 50 mg/kg. Also, the “single dose well tolerated” value in “Mouse MTD” (mice, IP injection, single dose, monitored 2 weeks) amounted to 50 mg/kg. In addition, the “daily dosing well tolerated” value in the series “Mouse MTD” (mice, IP, daily for 5 consecutive days) was found to be 50 mg/kg. In addition, the minimum inhibitory concentration (MIC) in series [5] was above 64 µg/mL; in series [6], 64 µg/mL.
